# Measurements: patent US9216964B2, “Hedgehog pathway modulators” (Novartis AG, priority 2008, dated 2015)
# Tested on: hedgehog signaling pathway
# Assay: Gli-Luc Reporter Assay for Hh Pathway Inhibition (TMHh-12 cells, pTA-8×Gli-Luc reporter)
# Assay type: cell-based, Mouse
# Conditions: Mus musculus, TMHh12, Ag1.5 1 nM; read-out: Hedgehog Inhibition IC50 (nM) (Ag1.5 1 nM)
# In short: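 Mouse TM3 cells stably carrying an 8×Gli-firefly luciferase reporter, in 2% FBS medium; pathway activated with recombinant mouse Shh (8 μg/mL) or Smo agonist, compounds added at varying concentrations for 48 h. Luminescence read; IC50 at 50% signal reduction. Toxicity checked in TM3 cells (CellTiter-Glo) or constitutive-luciferase TM3-Luc cells.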
row,IC50 [nM],Compound
1,2.6,O=C1c2cccc(Nc3ccc(Cl)c(-c4ncc(-c5ccccc5)[nH]4)c3)c2CCN1C[C@H](O)CO [Compound 35]
2,2940,Cc1ccc(Nc2cccc3c2CCN(S(C)(=O)=O)C3)cc1-c1cccc(C(=O)N2CCCC2)c1 [Compound 140]
3,1,Cc1ccc(Nc2cccc3c2CCN(S(C)(=O)=O)C3)cc1C(=O)Nc1ccc(C#N)cc1 [Compound 160]
4,52,Cc1ccc(Nc2cccc3c2CCN(S(C)(=O)=O)C3)cc1-c1ccc(C#N)nc1 [Compound 129]
5,2.1,Cc1ccc(Nc2cccc3c2CCN(S(C)(=O)=O)C3)cc1C(=O)Nc1ccccn1 [Compound 162]
6,5.3,CCC(CC)(C(=O)O)C(=O)N1CCc2c(cccc2Nc2ccc(Cl)c(-c3nc(-c4ccccc4)c[nH]3)c2)C1 [Compound 66]
7,1.8,OCC(CO)N1CCc2c(cccc2Nc2ccc(Cl)c(-c3ncc(-c4ccccc4)[nH]3)c2)C1 [Compound 34]
8,362,Cc1ccc(Nc2cccc3c2CCN(S(C)(=O)=O)C3)cc1-c1ccccc1 [Compound 115]
9,47,Cc1cc(C#N)ccc1-c1cc(Nc2cccc3c2CCN(S(C)(=O)=O)C3)ccc1C [Compound 163]
10,1.4,O=C(O)C1(C(=O)N2CCc3c(cccc3Nc3ccc(Cl)c(-c4ncc(-c5ccccc5)[nH]4)c3)C2)CCC1 [Compound 69]
11,1.2,Clc1ccc(Nc2cccc3c2CCN(C2CCCCCC2)C3)cc1-c1ncc(-c2ccccc2)[nH]1 [Compound 30]
12,1.6,NS(=O)(=O)N1CCc2c(cccc2Nc2ccc(Cl)c(-c3ncc(-c4ccccc4)[nH]3)c2)C1 [Compound 13]
13,9.8,COc1ccc(-c2cc(Nc3cccc4c3CCN(C3CS(=O)(=O)C3)C4)ccc2C)nn1 [Compound 276]

# Same assay, conditions: Mus musculus, TMHh12, enzymatic and cellular assays for the inhibition of hedgehog signaling pathways; read-out: IC50 Ranges
row,IC50 [nM],Compound
1,1 to 10,O=C1c2cccc(Nc3ccc(Cl)c(-c4ncc(-c5ccccc5)[nH]4)c3)c2CCN1C[C@H](O)CO [Compound 35]
2,10 to 100,Cc1ccc(Nc2nccc3c2CCN(S(C)(=O)=O)C3)cc1-c1cc2ccccc2cn1 [Compound 331]
3,0.001 to 1,CN(C)CC(C)(C)CN1CCc2c(cccc2Nc2ccc(Cl)c(-c3ncc(-c4ccccc4)[nH]3)c2)C1 [Compound 54]
4,1 to 10,Cc1ccc(Nc2cccc3c2CCN(CC(C)(C)O)C3)cc1C(=O)Nc1ccccc1 [Compound 222]
5,1 to 10,Cc1ccc(Nc2cccc3c2CCN(CCS(C)(=O)=O)C3)cc1-c1ncccc1F [Compound 260]
6,0.001 to 1,Cc1ccc(Nc2cccc3c2CCN(C2CCS(=O)(=O)C2)C3)cc1-c1cc2ccccc2cn1 (stereo not drawn) [Compound 324]
7,1 to 10,Cc1ccc(Nc2cccc3c2CCN(C2CS(=O)(=O)C2)C3)cc1-c1ncccc1F [Compound 275]
8,100 to 1000,Cc1ccc(Nc2cccc3c2CCN(S(C)(=O)=O)C3)cc1-c1cnc(C#N)cn1 [Compound 208]
9,0.001 to 1,CCOc1ccc(-c2cc(Nc3cccc4c3CCN(S(C)(=O)=O)C4)ccc2C)nn1 [Compound 271]
10,0.001 to 1,CCS(=O)(=O)CCN1CCc2c(cccc2Nc2ccc(C)c(-c3ccc(C)cn3)c2)C1 [Compound 261]
11,10 to 100,Cc1ccc(Nc2nccc3c2CCN(S(C)(=O)=O)C3)cc1C(=O)Nc1ccccc1 [Compound 247]
12,1 to 10,O=C(O)CC(=O)N1CCc2c(cccc2Nc2ccc(Cl)c(-c3nc(-c4ccccc4)c[nH]3)c2)C1 [Compound 44]
13,100 to 1000,Cc1ccc(Nc2cccc3c2CCN(S(C)(=O)=O)C3)cc1-c1ccc(CN(C)C)cc1 [Compound 108]
14,0.001 to 1,O=C1c2cccc(Nc3ccc(Cl)c(-c4ncc(-c5ccccc5)[nH]4)c3)c2CCN1C1(CO)CC1 [Compound 88]
15,1000 to 10000,Cc1c(CN(C)C)cc(Nc2cccc3c2CCN(S(C)(=O)=O)C3)cc1-c1ccc(F)cn1 [Compound 197]
16,1 to 10,Cc1ccc(Nc2cccc3c2CCN(S(C)(=O)=O)C3)cc1-c1cc(F)ccn1 [Compound 217]
17,0.001 to 1,CCOc1cnc(-c2cc(Nc3cccc4c3CCN(S(C)(=O)=O)C4)ccc2C)cn1 [Compound 314]
18,1 to 10,CCOc1cnc(-c2cc(Nc3cccc4c3CCN(C3CCS(=O)(=O)C3)C4)ccc2C)cn1 (stereo not drawn) [Compound 308]
19,0.001 to 1,COc1cccc(-c2cnc(-c3cc(Nc4cccc5c4CCN(S(C)(=O)=O)C5)ccc3C)[nH]2)n1 [Compound 104]
20,0.001 to 1,Cc1ccc(Nc2cccc3c2CCN(C2CS(=O)(=O)C2)C3)cc1-c1ncc(F)cc1F [Compound 325]
21,0.001 to 1,Cc1ccc(-c2cc(Nc3cccc4c3CCN([C@@H]3CCS(=O)(=O)C3)C4)ccc2C)nc1 [Compound 279]
22,1 to 10,Cc1ccc(-c2nc(Nc3cccc4c3CCN(CCS(C)(=O)=O)C4)ccc2Cl)nc1 [Compound 278]
23,0.001 to 1,[O-][S+]1CCC(N2CCc3c(cccc3Nc3ccc(Cl)c(-c4ncc(-c5ccccc5)[nH]4)c3)C2)CC1 (stereo not drawn) [Compound 12]
24,1000 to 10000,Cc1ccc(Nc2cccc3c2CCN(S(C)(=O)=O)C3)cc1-c1cccc(C(=O)N2CCCC2)c1 [Compound 140]

row,IC50 [nM],Compound
1,0.001 to 1,OCC(F)(F)CN1CCc2c(cccc2Nc2ccc(Cl)c(-c3nc(-c4ccccc4)c[nH]3)c2)C1 [Compound 71]
2,1 to 10,CCOc1cnc(-c2cc(Nc3cccc4c3CCN(C3CCS(=O)(=O)CC3)C4)ccc2C)cn1 [Compound 335]
3,0.001 to 1,COc1ccc2[nH]c(-c3cc(Nc4cccc5c4CCN(S(C)(=O)=O)C5)ccc3C)nc2c1 [Compound 15]
4,0.001 to 1,Cc1ccc(-c2nc(Nc3cccc4c3CCN(S(C)(=O)=O)C4)ccc2C)nc1 [Compound 274]
5,1 to 10,Cc1ccc(Nc2cccc3c2CCN(CC(C)(C)O)C3)cc1-c1ccc(C#N)cn1 [Compound 199]
6,10 to 100,Cc1ccc(Nc2cccc3c2CCN(CC2(C)CC2)C3=O)cc1-c1nc2ccccc2[nH]1 [Compound 127]
7,0.001 to 1,Cc1ccc(Nc2cccc3c2CCN(S(C)(=O)=O)C3)cc1C(=O)Nc1ccc(C#N)cc1 [Compound 160]
8,10 to 100,Cc1ccc(Nc2cccc3c2CCN(S(C)(=O)=O)C3)cc1-c1ccc(C#N)nc1 [Compound 129]
9,1 to 10,Cc1ccc(-c2cc(Nc3cccc4c3CCN(C[C@H](O)CO)C4)ccc2C)nc1 [Compound 210]
10,1 to 10,C[C@@H](C(=O)O)N1CCc2c(cccc2Nc2ccc(Cl)c(-c3nc(-c4ccccc4)c[nH]3)c2)C1 [Compound 79]
11,0.001 to 1,OC[C@H](O)CN1CCc2c(cccc2Nc2ccc(Cl)c(-c3ncc(-c4ccccc4)[nH]3)c2)C1 [Compound 18]
12,0.001 to 1,CC(O)C(=O)N1CCc2c(cccc2Nc2ccc(Cl)c(-c3ncc(-c4ccccc4)[nH]3)c2)C1 (stereo not drawn) [Compound 10]
13,0.001 to 1,CCN1CCC(N2CCc3c(cccc3Nc3ccc(Cl)c(-c4ncc(-c5ccccc5)[nH]4)c3)C2)CC1 [Compound 6]
14,1 to 10,Clc1ccc(Nc2cccc3c2CCN(c2nn[nH]n2)C3)cc1-c1ncc(-c2ccccc2)[nH]1 [Compound 87]
15,0.001 to 1,COc1ccc(-c2cc(Nc3cccc4c3CCN(C3CCS(=O)(=O)C3)C4)ccc2C)nn1 (stereo not drawn) [Compound 256]
16,10 to 100,COc1ccnc(-c2cc(Nc3cccc4c3CCN(S(C)(=O)=O)C4)ccc2C)n1 [Compound 239]
17,1 to 10,CCOc1ccc(-c2cc(Nc3cccc4c3CCN(C3CCS(=O)(=O)C3)C4)ccc2C)nn1 (stereo not drawn) [Compound 296]
18,100 to 1000,Cc1ccc(Nc2cccc3c2CCN(S(C)(=O)=O)C3)cc1COc1ccccn1 [Compound 237]
19,1 to 10,CC(C)(C(=O)O)N1CCc2c(cccc2Nc2ccc(Cl)c(-c3nc(-c4ccccc4)c[nH]3)c2)C1 [Compound 65]
20,1 to 10,Cc1ccc(Nc2cccc3c2CCN(S(C)(=O)=O)C3)cc1C(=O)Nc1ccccn1 [Compound 162]
21,100 to 1000,Cc1ccc(Nc2cccc3c2CCN(S(C)(=O)=O)C3)cc1Oc1ccccn1 [Compound 214]
22,1 to 10,CCC(CC)(C(=O)O)C(=O)N1CCc2c(cccc2Nc2ccc(Cl)c(-c3nc(-c4ccccc4)c[nH]3)c2)C1 [Compound 66]
23,0.001 to 1,Cc1ccc(Nc2cccc3c2CCN([C@H]2CCS(=O)(=O)C2)C3)cc1-c1ncccc1F [Compound 286]
24,1 to 10,Cc1ccc(Nc2cccc3c2CCN(CCS(C)(=O)=O)C3)cc1-c1ccccn1 [Compound 262]

row,IC50 [nM],Compound
1,1 to 10,OCC(CO)N1CCc2c(cccc2Nc2ccc(Cl)c(-c3ncc(-c4ccccc4)[nH]3)c2)C1 [Compound 34]
2,10 to 100,COc1ccc(-c2cc(Nc3cccc4c3CCN(S(C)(=O)=O)C4)ccc2C)cn1 [Compound 98]
3,100 to 1000,Cc1ccc(Nc2cccc3c2CCN(S(C)(=O)=O)C3)cc1-c1ccccc1 [Compound 115]
4,1 to 10,CC(C)C(=O)N1CCc2c(cccc2Nc2ccc(Cl)c(-c3ncc(-c4ccccc4)[nH]3)c2)C1 [Compound 55]
5,10 to 100,Cc1cc(C#N)ccc1-c1cc(Nc2cccc3c2CCN(S(C)(=O)=O)C3)ccc1C [Compound 163]
6,100 to 1000,Cc1ccc(Nc2cccc3c2CCN(S(C)(=O)=O)C3)cc1-c1ccc(C(=O)NCCO)cc1 [Compound 145]
7,100 to 1000,Cc1ccc(Nc2cccc3c2CCN(S(C)(=O)=O)C3)cc1-c1ccc(F)cc1 [Compound 122]
8,100 to 1000,Cc1ccc(Nc2cccc3c2CCN(S(C)(=O)=O)C3)cc1-c1ccc(CNCCO)cc1 [Compound 158]
9,10 to 100,Cc1ccc(Nc2cccc3c2CCN(CC(F)(F)CO)C3)cc1-c1ccc(C#N)cc1 [Compound 112]
10,10 to 100,O=C(O)CCN1CCc2c(Nc3ccc(Cl)c(-c4nc(-c5ccccc5)c[nH]4)c3)cccc2C1=O [Compound 50]
11,1 to 10,O=C(O)C1(C(=O)N2CCc3c(cccc3Nc3ccc(Cl)c(-c4ncc(-c5ccccc5)[nH]4)c3)C2)CCC1 [Compound 69]
12,1 to 10,Cc1ccc(-c2cnc(-c3cc(Nc4cccc5c4CCN(S(C)(=O)=O)C5)ccc3C)[nH]2)cn1 [Compound 91]
13,1 to 10,Clc1ccc(Nc2cccc3c2CCN(C2CCCCCC2)C3)cc1-c1ncc(-c2ccccc2)[nH]1 [Compound 30]
14,10 to 100,Cc1ccc(Nc2ncnc3c2CCN(CCS(C)(=O)=O)C3)cc1-c1cc2ccccc2cn1 [Compound 305]
15,1 to 10,NS(=O)(=O)N1CCc2c(cccc2Nc2ccc(Cl)c(-c3ncc(-c4ccccc4)[nH]3)c2)C1 [Compound 13]
16,0.001 to 1,Cc1ccc(Nc2cccc3c2CCN(C2CCS(=O)(=O)C2)C3)cc1-c1ccc(F)cn1 (stereo not drawn) [Compound 250]
17,1 to 10,COc1ccc(-c2cc(Nc3cccc4c3CCN(C3CS(=O)(=O)C3)C4)ccc2C)nn1 [Compound 276]
18,0.001 to 1,Cc1ccc(Nc2cccc3c2CCN(CC(F)(F)CO)C3)cc1-c1nc2ccccc2[nH]1 [Compound 85]
19,1 to 10,CCN1CCC(N2CCc3c(Nc4ccc(Cl)c(-c5ncc(-c6ccccc6)[nH]5)c4)cccc3C2=O)CC1 [Compound 32]
20,0.001 to 1,Cc1ccc(Nc2cccc3c2CCN(S(C)(=O)=O)C3)cc1-c1ncc(-c2ccc(C#N)cc2)[nH]1 [Compound 101]
21,100 to 1000,CC(C(=O)O)N1CCc2c(Nc3ccc(Cl)c(-c4nc(-c5ccccc5)c[nH]4)c3)cccc2C1=O (stereo not drawn) [Compound 77]
22,1 to 10,Cc1ccc(Nc2cccc3c2CCN(C(=O)C(C)(CO)CO)C3)cc1-c1ncc(-c2cccnc2)[nH]1 [Compound 76]
23,100 to 1000,COC(=O)c1ccc(-c2cc(Nc3cccc4c3CCN(S(C)(=O)=O)C4)ccc2C)cc1 [Compound 141]
